We go through ten compounds from patent US11130741B2 (Bioimics AB, priority 2016, dated 2021).

What is called IC50 is the concentration that gives 50% inhibition. A lower IC50 goes with higher potency. One may read the MIC as the smallest concentration in the dilution series that meets the test's criterion for growth inhibition.

For assay [1], the system named is E. coli RNase P RNA, M1 RNA. As to the kind of experiment: Inhibition of bacterial RNase P activity, IC50 determination (cleavage of pATSerUG by M1 RNA). It counts as biochemical. The settings on record: NI = No inhibition.
Assay [2] has as its system Staphylococcus aureus subsp. aureus (ATCC29213). As to the kind of experiment: MIC, broth microdilution (CLSI), Staphylococcus aureus subsp. aureus ATCC29213. It counts as cell-based. Conditions: ATCC29213, Table 15, read-out: S. aureus ("wound") (MIC).
The subject of assay [3] is Escherichia coli (ATCC25922). As to the kind of experiment: MIC, broth microdilution (CLSI), Escherichia coli ATCC25922. The settings on record: ATCC25922, read-out: E. coli MIC, Table 15, NI = No inhibition. For orientation: Broth dilution looks for growth in wells or tubes with falling amounts of substance.

Compound `Cl.NCCNCCCNc1cc(C(F)(F)F)cc2c1Nc1ccc(Br)cc1S2` [compound 298, N1-(2-aminoethyl)-N3-(7-bromo-3-(trifluoromethyl)-10H-phenothiazin-1-yl)propane-1,3-diamine] returned an IC50 in assay [1] of 14 µM. The MIC in assay [2] and in assay [3] was 8 µg/mL in each case.
In assay [1], `CN(C)C1CCN(c2ccc3c(c2)Sc2cc(C(F)(F)F)cc(NC4CCN(CCN)CC4)c2N3)C1.Cl.Cl` (stereo not drawn) [compound 299, N-(1-(2-aminoethyl)piperidin-4-yl)-7-(3-(dimethylamino)pyrrolidin-1-yl)-3-(trifluoromethyl)-10H-phenothiazin-1-amine hydrochloride] had an IC50 of 6.8 µM. Further, the MIC in assay [2] stood at 8 µg/mL; in assay [3] it was 32 µg/mL.
Compound `Cl.Cl.NCCN1CCC(Nc2cc(C(F)(F)F)cc3c2Nc2ccc(N4CCC(F)(F)C4)cc2S3)CC1` [compound 303, N-(1-(2-aminoethyl)piperidin-4-yl)-7-(3,3-difluoro-pyrrolidin-1-yl)-3-(trifluoromethyl)-10H-phenothiazin-1-amine hydrochloride] registered an IC50 in assay [1] of 9.7 µM. Moreover, the figures for the minimal inhibitory concentration (MIC) in assay [2] and in assay [3] were 8 µg/mL and 32 µg/mL, respectively.
Regarding `CC1CCN(c2ccc3c(c2)Sc2cc(C(F)(F)F)cc(NC4CCN(CCN)CC4)c2N3)C1.Cl.Cl` (stereo not drawn) [compound 311, N-(1-(2-aminoethyl)piperidin-4-yl)-7-(3-methyl-pyrrolidin-1-yl)-3-(trifluoromethyl)-10H-phenothiazin-1-amine hydrochloride], the IC50 in assay [1] came out at 2.5 µM. The MIC in assay [2] was 2 µg/mL; in assay [3], 8 µg/mL.
In assay [1], `Cl.Cl.NC1CCCC(C(=O)Nc2cc(C(F)(F)F)cc3c2Nc2ccc(Br)cc2S3)C1` (stereo not drawn) [compound 312, 3-amino-N-(7-bromo-3-(trifluoromethyl)-10H-phenothiazin-1-yl)cyclohexane-1-carboxamide hydrochloride] had an IC50 of 12 µM. The MIC stood at 2 µg/mL in assay [2] and 16 µg/mL in assay [3].
`CC1CCCCN1c1ccc2c(c1)Sc1cc(C(F)(F)F)cc(NC3CCN(CCN)CC3)c1N2.Cl.Cl.Cl` (stereo not drawn) [compound 314, N-(1-(2-aminoethyl)piperidin-4-yl)-7-(2-methyl-piperidin-1-yl)-3-(trifluoromethyl)-10H-phenothiazin-1-amine hydrochloride]: the IC50 in assay [1] turned out to be 30 µM. For the same compound, the MIC came to 4 µg/mL in assay [2] and 8 µg/mL in assay [3].
With `Cl.NCCN1CCC(Nc2cc(C(F)(F)F)cc3c2Nc2ccc(N4CC5(CCC5)C4)cc2S3)CC1` [compound 325, N-(1-(2-aminoethyl)piperidin-4-yl)-7-(2-azaspiro [3.3]heptan-2-yl)-3-(trifluoromethyl)-10H-phenothiazin-1-amine hydrochloride], the IC50 in assay [1] came out at 6.4 µM. The minimum inhibitory concentration (MIC) was found to be 2 µg/mL in assay [2] and 8 µg/mL in assay [3].
The corresponding values for `Cl.Cl.NCCN(CCN)CCN1CCC(Nc2cc(C(F)(F)F)cc3c2Nc2ccc(Br)cc2S3)CC1` [compound 331, N1-(2-aminoethyl)-N1-(2-(4-((7-bromo-3-(trifluoromethyl)-10H-phenothiazin-1-yl)amino)piperidin-1-yl)ethyl)ethane-1,2-diamine hydrochloride] are 5.1 µM, 4 µg/mL and 8 µg/mL.
The corresponding values for `CC1(C)CCN(c2ccc3c(c2)Sc2cc(C(F)(F)F)cc(NC4CCN(CCN)CC4)c2N3)C1.Cl` [compound 332, N-(1-(2-aminoethyl)piperidin-4-yl)-7-(3,3-dimethyl-pyrrolidin-1-yl)-3-(trifluoromethyl)-10H-phenothiazin-1-amine hydrochloride] are 4.1 µM, 1 µg/mL and 8 µg/mL.
Consider `CC1CCN(c2ccc3c(c2)Sc2cc(C(F)(F)F)cc(NC4CCN(CCN)CC4)c2N3)C1C.Cl` (stereo not drawn) [compound 336, N-(1-(2-aminoethyl)piperidin-4-yl)-7-(2,3-dimethyl-pyrrolidin-1-yl)-3-(trifluoromethyl)-10H-phenothiazin-1-amine hydrochloride], for which half-maximal inhibition in assay [1] (IC50) required 19 µM. In addition, the values for the MIC in assay [2] and in assay [3] were 1 µg/mL and 4 µg/mL, respectively.
